Measurements from paper PMC4857598 (Nuclear medicine and biology, 2012).
Read-outs that look alike come from different tables or passages of the source.

Key:
MMP2 = molecular target: T1, MMP2 (Homo sapiens, UniProt P08253); test: Ilomastat inhibition of MMP2 activity; type: biochemical; conditions: 910 μM ilomastat, MMP2 1.4 μg, 37 °C, 24 hours, HPLC of fragmented peptide
T1 sequence (P08253 110-660): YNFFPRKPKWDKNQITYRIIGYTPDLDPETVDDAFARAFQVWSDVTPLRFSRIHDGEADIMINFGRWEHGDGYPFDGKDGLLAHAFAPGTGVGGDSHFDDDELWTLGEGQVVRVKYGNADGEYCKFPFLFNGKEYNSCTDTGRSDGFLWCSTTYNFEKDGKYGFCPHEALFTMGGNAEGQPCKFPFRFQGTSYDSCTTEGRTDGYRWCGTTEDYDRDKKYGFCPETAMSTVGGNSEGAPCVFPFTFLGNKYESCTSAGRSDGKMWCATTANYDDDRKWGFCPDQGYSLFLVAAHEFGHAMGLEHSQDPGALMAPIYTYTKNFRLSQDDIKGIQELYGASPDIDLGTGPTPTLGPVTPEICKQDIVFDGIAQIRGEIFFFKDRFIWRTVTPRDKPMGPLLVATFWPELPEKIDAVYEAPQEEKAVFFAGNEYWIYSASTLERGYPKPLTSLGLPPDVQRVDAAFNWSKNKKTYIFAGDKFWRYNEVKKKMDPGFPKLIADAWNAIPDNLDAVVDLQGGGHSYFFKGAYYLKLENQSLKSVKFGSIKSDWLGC

Integrin αvβ3 [1] = conditions: read-out: IC50 value by fluorescence polarization; cited from earlier work
Integrin αvβ3 [2] = conditions: read-out: IC50 value by cell adhesion; cited from earlier work
αvβ3 [3] = conditions: read-out: IC50 value; published pentapeptides; cited from earlier work
αvβ3 [4] = conditions: read-out: IC50 value; published pentapeptides; cited from earlier work; remark: listed apart in the source

In the case of `CNC(=O)[C@H](Cc1c[nH]c2ccccc12)NC(=O)[C@@H](CC(=O)NO)CC(C)C` [ilomastat, N-[(2R)-2-(hydroxamidocarbonylmethyl)-4-methylpentanoyl]-L-tryptophan methylamide], the “inhibition of MMP2 cleavage of [64Cu]c(RGDfE)K(DOTA)PLGVRY” value (MMP2) is reported as “inhibition of the peptide cleavage”.
In the case of c(ERGDf) (head to tail), the IC50 (Integrin αvβ3 [1]) is listed as 0.28 ± 0.004 µM and the IC50 (Integrin αvβ3 [2]) is listed as 3.2 ± 0.16 µM.
In the case of c(RGDfK), the IC50 (αvβ3 [3]) is listed as 0.0042 µM.
In the case of c(rGDFV) (head to tail), the IC50 (αvβ3 [4]) is given as 25 ± 4 µM.
